The values below come from patent publication US11446391B2, “Amphiphilic dye-coated inorganic nanoparticle clusters” (THE TRUSTEES OF THE UNIVERSITY OF PENNSYLVANIA, priority 2017, dated 2022).

For one data set, the system named is GBM. Conditions: GBM patients, PDT; cited from earlier work.
Data set [1] in a line: Absorbance spectrum in water (solubility). Type of data set: physicochemical. The procedure: FIGS. 22A-22D. (FIG. 22A) Illustration of Ce6-coated SPION nanoclusters (Ce6-SCs). Iron oxide nanoparticles are stabilized in aqueous media by the self-assembly of amphiphilic PS Chlorin e6 on the surface using a microemulsion. (FIG. 22B) Dynamic light scattering (DLS) of Ce6-SCs in water. […] (FIG. 22C) Particle size and T2 relaxation time was monitored for 6 days in water at 25° C. (FIG. 22D) Magnetic resonance (MR) relaxometry measurements of Ce6-SCs. Inset: T2-weighted image of Ce6-SCs at various concentrations in a microplate. (FIG. 22E) Absorbance spectra of Ce6-SCs (black) and free Ce6 (brown) in water. The inset images are vials containing solutions of Ce6-SCs and free Ce6 in water.
Relaxometry measurements indicated an average r2 value of 301±4 mM^−1 s^−1 and MR images of a phantom confirmed strong T2 contrast relative to water (FIG. 22D).

Data set [2] in a line: Vials of free Ce6 or Ce6 nanoclusters in water. Type of data set: physicochemical. As to conditions: equal concentrations of Ce6. As to the method:
FIG. 43 is a photograph of vials containing solution with free Ce6 or Ce6 nanoclusters in water (at equal concentrations of Ce6).
The size distribution of Ce6 nanoclusters was measured by dynamic light scattering (DLS) in water at 25° C. (FIG. 39). The amphiphilic Ce6 molecules solubilized the PCL, creating stable nanoclusters with an average hydrodynamic diameter of 58±4 nm and an average polydispersity index (PDI) of <0.2. Fluorescence detection takes place when Ce6 is excited at around 404 nm, which then emits a characteristic reference fluorescence peak at approximately 650 nm (FIG. 40).

For data set [3] the following is noted: Ce6 at 667 nm, PpIX at 631 nm; in M-1cm-1 (unit assumed); cited from earlier work.

Take `C=Cc1c(C)c2cc3nc(c(CC(=O)N[C@@H](CC(=O)O)C(=O)O)c4[nH]c(cc5nc(cc1[nH]2)C(C)=C5CC)c(C)c4C(=O)O)[C@@H](CCC(=O)O)[C@@H]3C` [talaporfin, mono-L-aspartyl chlorin e6]: in the data set with GBM, the adverse events result is “only mild adverse events” and the overall survival was 24.8 months.
As for Chlorin e6 [Ce6], the “solubility in water judged from absorbance spectrum (peak at ~665 nm)” value in data set [1] is listed as “poor solubility”. In data set [2], the behaviour in water entry is “aggregate and precipitate in water”. For the same compound, the peak extinction coefficient in data set [3] was 55,000.
